Several values for one entry are separate records, joined by “and”; a condition that tells them apart may be missing. Identical values can stand only once.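 Dose response: 5 concentrations. Exposure: 48 h. Format: 96-well plates. Endpoint: linear interpolation; highest concentration if not reached. The concentration for 50% growth inhibition is given as GI50. TGI marks complete inhibition of growth.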
These molecules were tested on MDA-MB-468 breast (assay: growth of human tumour cells (NCI), 48 h).
`O=c1cc/c(=N\Nc2ccccc2)c(=O)/c1=N/Nc1ccccc1` was tested, and the GI50 was greater than 50 µM and the TGI was greater than 50 µM. `S=C(Nc1ccccc1)c1ccccn1` was tested, and the GI50 was 45.3 µM and the TGI was greater than 100 µM. Molecule `CCCCCCn1c(-c2ccc(C(=O)O/N=C(\N)c3ccc(OC)cc3)cc2)nc(-c2ccccc2)c1-c1ccccc1` has a GI50 of 1.75 µM and a TGI of 3.51 µM. `CC(=O)OCC(=O)[C@@]1(O)[C@H](C)C[C@H]2[C@@H]3C=C(C)C4=Cc5c(cnn5-c5ccc(F)cc5)C[C@]4(C)[C@H]3[C@@H](O)C[C@@]21C` gave a GI50 of 2.01 µM and a TGI of 3.92 µM. `COc1ccc2c(c1)[nH]c(=O)c1c3cccnc3cn21` gave a GI50 of 0.133 µM and a TGI of 2.33 µM. In the case of `N#C/C(=C\c1cn(-c2ccccc2)c2ccccc12)C(=O)O`, the GI50 was 50.7 µM and the TGI was greater than 100 µM. With `N#Cc1nc(-c2cccc(Br)c2)cc(-c2ccc(Nc3nc(N4CCCCC4)nc(N4CCCCC4)n3)cc2)c1N` the GI50 was 2.16 µM and the TGI was 5.64 µM. Work on `COc1ccc(C2CC(=O)Nc3c2c(C)nn3-c2nc3ccccc3[nH]2)cc1` (stereo unspecified) yielded a GI50 of 2.86 µM and a TGI of 12.6 µM. In the case of `C#Cc1cccc(NC(=O)Nc2ccc(NC(=O)CCl)cc2)c1`, the GI50 was 13.3 µM and the TGI was 32.1 µM. For `COc1cc(N2CCC(N(C)C)CC2)ccc1Nc1ncc(Cl)c(Nc2ccccc2P(C)(C)=O)n1`, the GI50 was 1.22 µM and 0.897 µM and the TGI was 3.71 µM and 4.49 µM. With `Cn1cnc2c(F)c(Nc3ccc(Br)cc3Cl)c(C(=O)NOCCO)cc21` the GI50 was > 10 µM and 11.9 µM and the TGI was > 10 µM and 71.1 µM. Molecule `COC(=O)Nc1ccc2ccc3c(NC(=O)OC)ccc4ccc1c2c43` (tested in a mixture with another compound) has a GI50 of 3.8 µM and a TGI of 19.2 µM. `COc1ccc(/C=C/C(=O)c2ccc(Nc3ncnc4ccccc34)cc2)cc1OC` gave a GI50 of 2.17 µM and a TGI of 7.29 µM. Molecule `Clc1cc(Cl)cc(N2N=C(c3cccc(Nc4ccncc4)c3)CC2c2ccccc2)c1` (stereo unspecified) has a GI50 of 1.52 µM and a TGI of 3.01 µM. `FC(F)(F)c1ccc2c(c1)N(CCCN1CCN(C3CC3)CC1)c1ccccc1S2` showed a GI50 of 3.84 µM and a TGI of 15.1 µM. In the case of `CCCCCC(=O)N1c2ccccc2NC2=C(C(=O)CC(c3ccc(OC)c(OC)c3)C2)C1c1ccc(C(F)(F)F)cc1` (stereo unspecified), the GI50 was greater than 100 µM and the TGI was greater than 100 µM. `COc1cc(C)cc2c1OC(c1ccccc1)CC2=O` (stereo unspecified) gave a GI50 greater than 100 µM and a TGI greater than 100 µM. For `O=C(CNC(=O)c1cccc2ccccc12)Nc1ccccc1Oc1cccc(O)c1`, the GI50 was 3.55 µM and the TGI was 19.4 µM. `O=[N+]([O-])c1cccc(-c2nc3sccn3c2-c2ccnc(NCCCNS(=O)(=O)c3ccc(F)cc3)n2)c1` was tested, and the GI50 was 1.5 µM and the TGI was 7.11 µM. Molecule `COc1nccc(-c2c(-c3ccc(F)cc3)ncn2C2CCC(O)CC2)n1` (stereo unspecified) has a GI50 of 21.6 µM and a TGI greater than 89.4 µM. With `CN(C)c1cccc2[nH]c(-c3[nH]ncc3Nc3ccnc(N)n3)nc12` the GI50 was 0.0145 µM and the TGI was 0.0422 µM. `Cn1cc(-c2cc3ncnc(Nc4ccc(NC(=O)Nc5cc(C(C)(C)C)on5)cc4)c3s2)cn1` showed a GI50 of 0.92 µM and a TGI of 4.75 µM. `O=C(Nc1ccccc1Cl)c1cnc2ccc(C3CCNCC3)cn12` showed a GI50 of 2.13 µM and a TGI of 9.54 µM. Work on `OCCNc1nc(NCCO)nc(Nc2ccc(C3=NN(c4cc(Cl)cc(Cl)c4)C(c4ccc(Cl)cc4)C3)cc2)n1` (stereo unspecified) yielded a GI50 of 1.92 µM and a TGI of 3.77 µM. `CCN(CC)CCC(=O)Nc1cccc2c1C(=O)c1c(c(O)c3ccccc3c1O)C2=O` showed a GI50 greater than 100 µM and a TGI greater than 100 µM. Molecule `CCCCCCCCCCCCCCCCCCOc1ccccc1CC(=O)OCC[N+](C)(C)C` has a GI50 of 1.37 µM and a TGI of 3.05 µM. `CCN(CC)c1ccc(/C=N/NC(=O)c2ccc(Nc3ccnc(C(F)(F)F)c3)cc2)c(O)c1` was tested, and the GI50 was 0.227 µM and the TGI was 0.956 µM. `COc1cc2c3c(n(CCCNC4CCCC4)c(=O)c2cc1OC)-c1cc2c(cc1C3=O)OCO2` showed a GI50 of 5.6 µM and a TGI of 19.6 µM. For `Cc1cccc2c3c(sc12)C(c1ccc(Cl)cc1)C(C#N)=C(/N=C/c1ccc(Cl)cc1)O3` (stereo unspecified), the GI50 was 0.257 µM and the TGI was 2 µM. `CNC(=O)c1cc(Oc2ccc3nc(NC(=O)Nc4ccc(Cl)c(Cl)c4)sc3c2)ccn1` gave a GI50 of 1.97 µM and a TGI of 5.09 µM. In the case of `CC1OC(O[C@@H]2C(O)C(CO)OC(O[C@H]3COC(O[C@H]4CC[C@]5(C)[C@H]6CC[C@]78OC[C@@]9(CC[C@](C)(C=O)C[C@H]97)[C@H](O)C[C@@]8(C)[C@]6(C)CC[C@H]5C4(C)C)[C@@H](OC4OC(CO)[C@@H](O)[C@@H](O)[C@@H]4O)[C@@H]3O)[C@H]2OC2OC[C@@H](O)[C@@H](O)[C@@H]2O)[C@@H](O)[C@@H](O)[C@H]1O` (stereo partly specified), the GI50 was 1.59 µM and the TGI was 3.28 µM. `COC(=O)c1c2c(c(C)[n+]([O-])c1C)C(=O)C=C(NCc1ccc(Cl)cc1)C2=O` was tested, and the GI50 was 0.223 µM and the TGI was 0.76 µM. Molecule `C=C1C(=O)O[C@H]2[C@H]1CC/C(COC(=O)NCCc1ccc(OC)cc1)=C\CC[C@@]1(C)O[C@@H]21` has a GI50 of 1.55 µM and a TGI of 3.85 µM. Work on `O=C(O)C(/C=C/c1ccco1)=N\Nc1nc(-c2ccc(Cl)cc2)cs1` yielded a GI50 of 10.6 µM and a TGI greater than 50 µM. For `O=C(Oc1ccccc1)c1cc(O)c(O)c(O)c1`, the GI50 was 12.6 µM and the TGI was 67.5 µM. With `c1ccc(-c2nc(Nc3ccc(-c4nc5ccccc5[nH]4)cc3)nc(N3CCOCC3)n2)cc1` the GI50 was 2.13 µM and the TGI was 4.39 µM. `CCCCCCN1C(=O)/C(=c2\sc3n(c2=O)C2C(NN=3)N(CC)C(=O)N2CC)c2ccccc21` (stereo unspecified) showed a GI50 of 1.41 µM and a TGI greater than 50 µM. `Cc1sc2ncnc(Sc3nc4ccccc4[nH]3)c2c1C` gave a GI50 of 17.7 µM and a TGI of 60.5 µM. With `CC(C)(C)Cn1c(N)nc2ccc(-c3[nH]c(C(C)(C)C)nc3-c3ccc(F)cc3)nc21` the GI50 was 3.1 µM and the TGI was 16.8 µM. With `Cc1cn(-c2cc(NC(=O)c3cncc(C#Cc4cnc5ccc(OCCCS(C)(=O)=O)nn45)c3)cc(C(F)(F)F)c2)cn1` the GI50 was 2.2 µM and the TGI was 7.33 µM. With `Nc1nc(-n2cccn2)nc(-n2cccn2)c1Br` the GI50 was greater than 100 µM and the TGI was greater than 100 µM. In the case of `[N-]=[N+]=Nc1ncc(-c2ccc(C(F)(F)F)cc2)c(NC2CCCCCC2)n1`, the GI50 was greater than 10 µM and the TGI was greater than 10 µM. With `Cc1ccc(NC(=O)c2ccnc(C(F)(F)F)c2)cc1-c1cc(OCCO)nc(N2CCOCC2)c1` the GI50 was 1.82 µM and the TGI was 7.09 µM.
